Key:
Hepatitis B virus [1] = assay: Ratio of EC50 for antiviral activity against HBV harboring core protein V124F mutant to EC50 for antiviral activity against HBV harboring wild type core protein; type: functional
Hepatitis B virus [2] = assay: Antiviral activity against HBV harboring core protein P25S mutant; type: functional, organism-based
Hepatitis B virus [3] = assay: Ratio of EC50 for antiviral activity against HBV harboring core protein T33Q mutant to EC50 for antiviral activity against HBV harboring wild type core protein; type: functional
Hepatitis B virus [4] = assay: Ratio of EC50 for antiviral activity against HBV harboring core protein V124I mutant to EC50 for antiviral activity against HBV harboring wild type core protein; type: functional
Hepatitis B virus [5] = assay: Antiviral activity against HBV harboring wild type core protein; type: functional, organism-based
Hepatitis B virus [6] = assay: Ratio of EC50 for antiviral activity against HBV harboring core protein P25G mutant to EC50 for antiviral activity against HBV harboring wild type core protein; type: functional
Hepatitis B virus [7] = assay: Ratio of EC50 for antiviral activity against HBV harboring core protein T33S mutant to EC50 for antiviral activity against HBV harboring wild type core protein; type: functional
Hepatitis B virus [8] = assay: Ratio of EC50 for antiviral activity against HBV harboring core protein P25S mutant to EC50 for antiviral activity against HBV harboring wild type core protein; type: functional
Hepatitis B virus [9] = assay: Antiviral activity against HBV harboring core protein V124F mutant; type: functional, organism-based
Hepatitis B virus [10] = assay: Ratio of EC50 for antiviral activity against HBV harboring core protein T33N mutant to EC50 for antiviral activity against HBV harboring wild type core protein; type: functional
Hepatitis B virus [11] = assay: Antiviral activity against HBV harboring core protein V124I mutant; type: functional, organism-based
Hepatitis B virus [12] = assay: Ratio of EC50 for antiviral activity against HBV harboring core protein P25A mutant to EC50 for antiviral activity against HBV harboring wild type core protein; type: functional
Hepatitis B virus [13] = assay: Antiviral activity against HBV harboring core protein T33S mutant; type: functional, organism-based
Hepatitis B virus [14] = assay: Antiviral activity against HBV harboring core protein P25A mutant; type: functional, organism-based
Hepatitis B virus [15] = assay: Antiviral activity against HBV harboring core protein T33N mutant; type: functional, organism-based
Hepatitis B virus [16] = assay: Antiviral activity against HBV harboring core protein P25G mutant; type: functional, organism-based
Hepatitis B virus [17] = assay: Antiviral activity against HBV harboring core protein T33Q mutant; type: functional, organism-based
Hepatitis B virus [18] = assay: Antiviral activity against Hepatitis B virus infected in HepG2.2.15 cells; type: functional, organism-based
Hepatitis B virus [19] = assay: Antiviral activity against Hepatitis B virus harboring rtA181V transfected in HepG2 cells; type: functional, organism-based
[20] = Selectivity index, ratio of CC50 for human HePAD38 cells to EC50 for antiviral activity against Hepatitis B virus infected in HePAD38 cells; type: toxicity, cell-based; settings: read-out: Ratio CC50/EC50
Hepatitis B virus [21] = assay: Antiviral activity against Hepatitis B virus harboring rtL180M/M204V/N236T transfected in HepG2 cells; type: functional, organism-based
Hepatitis B virus [22] = assay: Antiviral activity against Hepatitis B virus harboring rtA181V/N236T transfected in HepG2 cells; type: functional, organism-based
[23] = Oral bioavailability in mouse; type: ADME, organism-based; settings: in vivo
Hepatitis B virus [24] = assay: Antiviral activity against Hepatitis B virus harboring rtL180M/M204V transfected in HepG2 cells; type: functional, organism-based
Hepatitis B virus [25] = assay: Antiviral activity against Hepatitis B virus infected in HePAD38 cells; type: functional, organism-based
[26] = Cytotoxicity against human HePAD38 cells; type: toxicity, cell-based
Hepatitis B virus [27] = assay: Antiviral activity against Hepatitis B virus harboring rtN236T transfected in HepG2 cells; type: functional, organism-based
Hepatitis B virus [28] = assay: Antiviral activity against Hepatitis B virus infected in AML12HBV10 cells; type: functional, organism-based
[29] = Cytotoxicity against human HepG2.2.15 cells; type: toxicity, cell-based, HepG2 2.2.15
Hepatitis B virus [30] = assay: Antiviral activity against Hepatitis B virus infected in primary hepatocytes; type: functional, organism-based; settings: Hepatocyte
[31] = Cytotoxicity against human HepDE19 cells; type: functional
[32] = Cytotoxicity against human HepBHAe82 cells; type: toxicity, cell-based
[33] = Cytotoxicity against mouse AML12HBV10; type: toxicity, cell-based; settings: AML12HBV10 cells
Hepatitis B virus [34] = assay: Antiviral activity against Hepatitis B virus infected in HepBHAe82 cells; type: functional, organism-based
Hepatitis B virus [35] = assay: Antiviral activity against Hepatitis B virus infected in HepDE19 cells; type: functional, organism-based
[36] = Cytotoxicity in human primary hepatocytes; type: toxicity, cell-based, Hepatocyte
Hepatitis B virus [37] = assay: Antiviral activity against Hepatitis B virus infected in HepDES19 cells; type: functional, organism-based
[38] = Cytotoxicity against human HepDES19 cells; type: toxicity, cell-based
Hepatitis B virus [39] = assay: Antiviral activity against Hepatitis B virus infected in HePAD38 cells assessed as reduction in HBeAg production; type: functional, organism-based
[40] = Half life in human plasma; type: ADME, cell-free
[41] = Oral bioavailability in CD1 mouse; type: ADME, organism-based; settings: in vivo
[42] = Half life in dog plasma; type: ADME, cell-free, Canis lupus familiaris
[43] = Half life in mouse plasma; type: ADME, cell-free
Hepatitis B virus [44] = assay: Antiviral activity against Hepatitis B virus assessed as inhibition of nucleocapsid assembly; type: functional, organism-based

SMILES: COC(=O)C1=C(CN2CC(F)(F)C[C@H]2C(=O)O)NC(c2nccs2)=N[C@H]1c1ccc(F)cc1Cl
- Ratio (Hepatitis B virus [1]): 11.9
- EC50 (Hepatitis B virus [2]): 902 nM
- Ratio (Hepatitis B virus [3]): 21.7
- Ratio (Hepatitis B virus [4]): 0.1
- EC50 (Hepatitis B virus [5]): 91 nM
- Ratio (Hepatitis B virus [6]): 15.2
- Ratio (Hepatitis B virus [7]): 1.8
- Ratio (Hepatitis B virus [8]): 9.9
- EC50 (Hepatitis B virus [9]): 1090 nM
- Ratio (Hepatitis B virus [10]): 38.1
- EC50 (Hepatitis B virus [11]): 9 nM
- Ratio (Hepatitis B virus [12]): 8.1
- EC50 (Hepatitis B virus [13]): 162 nM
- EC50 (Hepatitis B virus [14]): 735 nM
- EC50 (Hepatitis B virus [15]): 3470 nM
- EC50 (Hepatitis B virus [16]): 1380 nM
- EC50 (Hepatitis B virus [17]): 1970 nM

SMILES: O=C(Nc1cc(F)c(F)c(F)c1)c1ccc(F)c(S(=O)(=O)N2CCC(O)CC2)c1
- EC50 (Hepatitis B virus [18]): 400 nM
- Ratio (Hepatitis B virus [1]): 0.7
- EC50 (Hepatitis B virus [2]): 930 nM
- EC50 (Hepatitis B virus [19]): 820 nM
- Ratio (Hepatitis B virus [3]): >13
- Ratio (Hepatitis B virus [4]): 0.1
- EC50 (Hepatitis B virus [5]): 390 nM
- selectivity ratio [20]: 15.6
- EC50 (Hepatitis B virus [21]): 820 nM
- EC50 (Hepatitis B virus [22]): 820 nM
- Ratio (Hepatitis B virus [6]): 12.2
- Ratio (Hepatitis B virus [7]): 2.3
- Ratio (Hepatitis B virus [8]): 2.4
- EC50 (Hepatitis B virus [9]): 289 nM
- Ratio (Hepatitis B virus [10]): >13
- EC50 (Hepatitis B virus [11]): 42 nM
- bioavailability [23]: ≥ 84.6%
- EC50 (Hepatitis B virus [24]): 820 nM
- EC50 (Hepatitis B virus [25]): 330 nM
- Ratio (Hepatitis B virus [12]): 2.3
- EC50 (Hepatitis B virus [13]): 878 nM
- CC50 [26]: 5140 nM
- EC50 (Hepatitis B virus [14]): 895 nM
- EC50 (Hepatitis B virus [27]): 820 nM
- EC50 (Hepatitis B virus [15]): > 5000 nM
- EC50 (Hepatitis B virus [16]): 4750 nM
- EC50 (Hepatitis B virus [17]): > 5000 nM

SMILES: CC[C@@H](C)NS(=O)(=O)c1ccc(F)c(C(=O)Nc2ccc(F)c(F)c2)c1
- EC50 (Hepatitis B virus [18]): 80 nM
- EC90 (Hepatitis B virus [18]): 330 nM
- EC50 (Hepatitis B virus [28]): 80 nM
- EC90 (Hepatitis B virus [28]): 330 nM
- CC50 [29]: > 10000 nM
- EC50 (Hepatitis B virus [30]): 80 nM
- EC90 (Hepatitis B virus [30]): 330 nM
- CC50 [31]: > 10000 nM
- CC50 [32]: > 10000 nM
- CC50 [33]: > 10000 nM
- EC50 (Hepatitis B virus [34]): 80 nM
- EC90 (Hepatitis B virus [34]): 330 nM
- EC50 (Hepatitis B virus [35]): 80 nM
- EC90 (Hepatitis B virus [35]): 330 nM
- CC50 [36]: > 10000 nM

SMILES: CCC(C)NS(=O)(=O)c1ccc(F)c(C(=O)Nc2ccc(F)c(F)c2)c1 (stereo unspecified)
- IC50 (Hepatitis B virus [28]): 300 nM
- IC50 (Hepatitis B virus [37]): 100 nM
- CC50 [33]: > 50000 nM
- CC50 [38]: > 50000 nM

SMILES: C#CCNC(=O)C(=O)c1c(C)c(C(=O)Nc2ccc(F)c(F)c2)n(C)c1C
- IC50 (Hepatitis B virus [39]): 3 nM
- half-life [40]: > 24 h
- bioavailability [41]: > 100%
- half-life [42]: > 24 h
- half-life [43]: > 24 h
- CC50 [36]: > 10000 nM

SMILES: O=C1CCN(S(=O)(=O)c2cc(C(=O)Nc3cc(F)c(F)c(F)c3)ccc2F)CC1
- selectivity ratio [20]: 24.7
- EC50 (Hepatitis B virus [25]): 300 nM
- CC50 [26]: 7410 nM

SMILES: O=C(Nc1cc(F)c(F)c(F)c1)c1ccc(F)c(S(=O)(=O)N2C[C@H]3CC[C@@H]2CC3O)c1 (stereo partly specified)
- selectivity ratio [20]: 30.5
- EC50 (Hepatitis B virus [25]): 350 nM
- CC50 [26]: 10700 nM

SMILES: O=C1CC2CN(S(=O)(=O)c3cc(C(=O)Nc4cc(F)c(F)c(F)c4)ccc3F)CC2C1 (stereo unspecified)
- selectivity ratio [20]: 48
- EC50 (Hepatitis B virus [25]): 390 nM
- CC50 [26]: 18700 nM

SMILES: CC(NS(=O)(=O)c1c2ncccc2c(C(=O)Nc2ccc(F)c(F)c2)n1C)C(F)(F)F (stereo unspecified)
- EC50 (Hepatitis B virus [18]): 0.1 nM
- CC50 [29]: > 30000 nM
- IC50 (Hepatitis B virus [44]): < 1000 nM

SMILES: O=C(Nc1cc(F)c(F)c(F)c1)c1ccc(F)c(S(=O)(=O)N2C[C@H]3CC[C@@H]2CC3=O)c1
- selectivity ratio [20]: 33.7
- EC50 (Hepatitis B virus [25]): 220 nM
- CC50 [26]: 7410 nM

SMILES: O=C(Nc1cc(F)c(F)c(F)c1)c1ccc(F)c(S(=O)(=O)NC2CCC(O)CC2)c1 (stereo unspecified)
- selectivity ratio [20]: 42.7
- EC50 (Hepatitis B virus [25]): 250 nM
- CC50 [26]: 10700 nM

SMILES: Cn1cc2c(c1C(=O)Nc1cc(F)c(F)c(F)c1)OCC1CN(C(=O)c3ncco3)CC1NS2(=O)=O (stereo unspecified)
- EC50 (Hepatitis B virus [25]): < 1000 nM

SMILES: O=C(Nc1cc(F)c(F)c(F)c1)c1ccc(F)c(S(=O)(=O)N2CCC(=NO)CC2)c1
- selectivity ratio [20]: 35.3
- EC50 (Hepatitis B virus [25]): 210 nM
- CC50 [26]: 7410 nM

SMILES: O=C(Nc1cc(F)c(F)c(F)c1)c1ccc(F)c(S(=O)(=O)N2CC3CC(O)CC3C2)c1 (stereo unspecified)
- selectivity ratio [20]: 74.1
- EC50 (Hepatitis B virus [25]): 330 nM
- CC50 [26]: 22200 nM

SMILES: COC(=O)C1=C(C)NC(c2ncc(F)cc2F)=N[C@H]1c1ccc(F)cc1Cl
- Ratio (Hepatitis B virus [1]): 15.7
- EC50 (Hepatitis B virus [2]): 4280 nM
- Ratio (Hepatitis B virus [3]): 25
- Ratio (Hepatitis B virus [4]): 0.09
- EC50 (Hepatitis B virus [5]): 149 nM
- Ratio (Hepatitis B virus [6]): >67
- Ratio (Hepatitis B virus [7]): 3
- Ratio (Hepatitis B virus [8]): 28.7
- EC50 (Hepatitis B virus [9]): 2330 nM
- Ratio (Hepatitis B virus [10]): >67
- EC50 (Hepatitis B virus [11]): 13 nM
- Ratio (Hepatitis B virus [12]): 23.2
- EC50 (Hepatitis B virus [13]): 451 nM
- EC50 (Hepatitis B virus [14]): 3450 nM
- EC50 (Hepatitis B virus [15]): > 10000 nM
- EC50 (Hepatitis B virus [16]): > 10000 nM
- EC50 (Hepatitis B virus [17]): 3720 nM

— ChEMBL document CHEMBL5244262, “Discovery and optimization of benzenesulfonamides-based hepatitis B virus capsid modulators via contemporary medicinal chemistry strategies” (Eur J Med Chem, 2020)
